{"source": "paper PMC3667671", "about": "(Clinical pharmacology and therapeutics, 2012)", "key": {"[1]": {"type": "in vivo, human"}, "[2]": {"conditions": "rapidly absorbed from the upper intestine; cited from earlier work"}, "[3]": {"biological_target": "T1, OATP1B1 (Homo sapiens, UniProt Q9Y6L6)", "T1 sequence (Q9Y6L6 1-691)": "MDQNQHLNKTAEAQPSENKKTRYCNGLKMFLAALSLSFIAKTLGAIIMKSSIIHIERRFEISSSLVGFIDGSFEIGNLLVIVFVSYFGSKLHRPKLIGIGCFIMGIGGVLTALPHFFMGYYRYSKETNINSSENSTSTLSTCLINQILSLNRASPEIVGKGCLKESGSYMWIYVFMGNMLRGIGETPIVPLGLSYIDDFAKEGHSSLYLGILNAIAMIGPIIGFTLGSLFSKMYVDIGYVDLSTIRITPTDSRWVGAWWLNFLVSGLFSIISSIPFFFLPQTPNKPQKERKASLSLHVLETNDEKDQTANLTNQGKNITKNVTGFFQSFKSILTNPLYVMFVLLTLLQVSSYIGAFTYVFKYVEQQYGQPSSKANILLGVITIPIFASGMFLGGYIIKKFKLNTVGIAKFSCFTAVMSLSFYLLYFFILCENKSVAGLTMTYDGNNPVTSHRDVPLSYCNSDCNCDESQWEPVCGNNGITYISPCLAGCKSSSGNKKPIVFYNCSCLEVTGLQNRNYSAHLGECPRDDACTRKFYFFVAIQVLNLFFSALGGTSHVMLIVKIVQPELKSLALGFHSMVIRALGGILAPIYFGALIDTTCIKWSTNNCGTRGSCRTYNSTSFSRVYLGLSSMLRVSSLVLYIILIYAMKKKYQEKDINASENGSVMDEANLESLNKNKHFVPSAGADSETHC", "type": "cell-based", "conditions": "OATP1B1-transfected HEK293 cells, efavirenz 1–1,000 μmol/l"}, "[4]": {"experiment": "Estimated luminal concentration of efavirenz after oral administration", "parameters": "species or system human", "conditions": "after oral administration of 400 mg, dose/250 mL"}, "[5]": {"system": "serum cholesterol", "conditions": "human, in vivo; cited from earlier work"}, "[6]": {"biological_target": "ABCC2 (Homo sapiens, UniProt Q92887)", "sequence (Q92887 whole entry)": "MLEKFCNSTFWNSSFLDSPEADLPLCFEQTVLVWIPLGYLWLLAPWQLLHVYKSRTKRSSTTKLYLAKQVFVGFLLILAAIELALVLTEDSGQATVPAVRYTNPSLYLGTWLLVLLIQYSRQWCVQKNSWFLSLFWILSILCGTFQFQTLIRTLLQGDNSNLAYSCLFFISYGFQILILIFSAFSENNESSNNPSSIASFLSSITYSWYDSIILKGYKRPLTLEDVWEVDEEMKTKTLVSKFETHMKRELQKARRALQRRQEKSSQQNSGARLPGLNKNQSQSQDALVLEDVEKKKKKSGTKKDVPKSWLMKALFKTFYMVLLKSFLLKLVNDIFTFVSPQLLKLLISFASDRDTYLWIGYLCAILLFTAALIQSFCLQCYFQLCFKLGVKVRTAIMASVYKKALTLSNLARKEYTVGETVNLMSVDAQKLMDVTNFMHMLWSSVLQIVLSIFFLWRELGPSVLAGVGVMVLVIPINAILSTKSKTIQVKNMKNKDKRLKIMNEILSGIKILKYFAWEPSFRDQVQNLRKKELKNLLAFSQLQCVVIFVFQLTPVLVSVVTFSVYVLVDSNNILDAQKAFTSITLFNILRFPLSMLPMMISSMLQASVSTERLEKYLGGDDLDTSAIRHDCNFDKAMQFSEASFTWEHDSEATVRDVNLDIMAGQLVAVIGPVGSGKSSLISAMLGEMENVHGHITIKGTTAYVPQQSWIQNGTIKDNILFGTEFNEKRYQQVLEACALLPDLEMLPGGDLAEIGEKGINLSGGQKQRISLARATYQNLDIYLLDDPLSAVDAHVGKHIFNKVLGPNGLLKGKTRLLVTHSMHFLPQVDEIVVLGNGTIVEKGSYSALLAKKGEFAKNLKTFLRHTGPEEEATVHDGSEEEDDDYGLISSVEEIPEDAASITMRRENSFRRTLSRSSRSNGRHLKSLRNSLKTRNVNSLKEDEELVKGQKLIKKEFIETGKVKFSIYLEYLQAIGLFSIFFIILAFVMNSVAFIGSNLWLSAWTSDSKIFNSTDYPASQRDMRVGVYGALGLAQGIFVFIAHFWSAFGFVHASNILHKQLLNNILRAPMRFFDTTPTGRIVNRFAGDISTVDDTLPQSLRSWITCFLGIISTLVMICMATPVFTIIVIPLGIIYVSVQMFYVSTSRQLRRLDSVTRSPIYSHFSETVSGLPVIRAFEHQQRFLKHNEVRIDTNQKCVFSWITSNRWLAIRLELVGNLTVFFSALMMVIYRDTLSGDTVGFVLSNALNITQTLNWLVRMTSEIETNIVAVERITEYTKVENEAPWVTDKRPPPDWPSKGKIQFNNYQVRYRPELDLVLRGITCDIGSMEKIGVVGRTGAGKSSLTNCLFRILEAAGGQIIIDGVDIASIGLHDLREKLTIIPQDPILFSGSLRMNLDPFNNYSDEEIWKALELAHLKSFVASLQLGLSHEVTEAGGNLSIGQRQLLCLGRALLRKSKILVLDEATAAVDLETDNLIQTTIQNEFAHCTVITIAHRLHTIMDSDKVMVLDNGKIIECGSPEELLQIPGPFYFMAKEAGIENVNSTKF", "experiment": "Uptake of estradiol-17β-glucuronide into ABCC2-containing inside-out vesicles", "type": "biochemical"}, "[7]": {"biological_target": "ABCB1 (Homo sapiens, UniProt P08183)", "sequence (P08183 whole entry)": "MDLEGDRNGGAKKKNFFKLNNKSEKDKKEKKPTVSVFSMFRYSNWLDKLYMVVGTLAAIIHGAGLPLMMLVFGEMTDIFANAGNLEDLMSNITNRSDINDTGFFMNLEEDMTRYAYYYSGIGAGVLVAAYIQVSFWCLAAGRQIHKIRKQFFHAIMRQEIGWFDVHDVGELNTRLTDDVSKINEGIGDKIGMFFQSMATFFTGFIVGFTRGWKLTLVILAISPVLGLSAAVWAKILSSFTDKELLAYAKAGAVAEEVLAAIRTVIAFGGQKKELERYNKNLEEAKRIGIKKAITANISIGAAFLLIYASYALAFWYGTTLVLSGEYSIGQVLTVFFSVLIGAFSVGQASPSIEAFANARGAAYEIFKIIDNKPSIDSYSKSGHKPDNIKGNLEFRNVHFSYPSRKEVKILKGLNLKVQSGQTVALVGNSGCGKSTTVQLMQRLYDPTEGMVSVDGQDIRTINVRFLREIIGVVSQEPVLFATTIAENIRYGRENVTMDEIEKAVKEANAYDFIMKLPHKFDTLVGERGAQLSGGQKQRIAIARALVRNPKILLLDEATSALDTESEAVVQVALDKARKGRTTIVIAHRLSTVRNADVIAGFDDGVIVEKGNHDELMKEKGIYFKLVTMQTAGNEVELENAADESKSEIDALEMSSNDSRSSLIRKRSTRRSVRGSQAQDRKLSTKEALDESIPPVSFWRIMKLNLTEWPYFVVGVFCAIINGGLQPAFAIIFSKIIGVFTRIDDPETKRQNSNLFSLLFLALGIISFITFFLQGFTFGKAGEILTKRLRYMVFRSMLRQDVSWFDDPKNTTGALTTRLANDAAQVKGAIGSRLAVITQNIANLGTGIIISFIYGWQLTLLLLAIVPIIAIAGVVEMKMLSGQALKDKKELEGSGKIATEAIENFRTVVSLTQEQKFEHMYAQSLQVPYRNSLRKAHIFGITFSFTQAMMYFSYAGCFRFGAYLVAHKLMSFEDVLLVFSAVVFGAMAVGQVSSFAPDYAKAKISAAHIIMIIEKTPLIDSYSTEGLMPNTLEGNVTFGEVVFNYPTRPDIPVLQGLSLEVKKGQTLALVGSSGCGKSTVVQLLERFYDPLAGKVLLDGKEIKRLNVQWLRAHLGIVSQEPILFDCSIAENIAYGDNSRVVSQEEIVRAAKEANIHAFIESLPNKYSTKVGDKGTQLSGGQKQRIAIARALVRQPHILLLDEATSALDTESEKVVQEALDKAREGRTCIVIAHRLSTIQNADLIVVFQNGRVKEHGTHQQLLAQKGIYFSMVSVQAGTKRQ", "experiment": "Calcein AM accumulation assay in ABCB1-transfected MDCKII cells", "type": "cell-based"}, "[8]": {"system": "serum sterols", "experiment": "Serum sterol concentrations", "type": "in vivo, human"}, "[9]": {"type": "in vivo, human", "conditions": "for AUC(0-t) / Cmax / AUC0–6 h / AUC0–24 h: serum; for AUC(0-t) / Cmax / CLR (renal clearance) / AUC0–6 h / AUC0–24 h: mean ± SD"}, "[10]": {"conditions": "400 mg efavirenz single dose, second value of the pair (taken as with ezetimibe)"}, "[11]": {"conditions": "chronic administration of 10 mg ezetimibe, 12 healthy subjects"}, "[12]": {"conditions": "ezetimibe + efavirenz multiple dose vs ezetimibe alone"}, "[13]": {"conditions": "ezetimibe + efavirenz single dose vs ezetimibe alone"}, "[14]": {"conditions": "steady state 10 mg ezetimibe + 400 mg efavirenz multiple dose"}, "[15]": {"conditions": "steady state 10 mg ezetimibe + 400 mg efavirenz single dose"}, "[16]": {"conditions": "steady state, 10 mg ezetimibe alone"}}, "note": "Where “and” joins values, the source holds several entries; their conditions need not be identical. Identical values can stand only once. Like-named read-outs stand apart in the source and are kept apart here.", "data": [{"smiles": "O=C1Nc2ccc(Cl)cc2[C@@](C#CC2CC2)(C(F)(F)F)O1", "note": "[Efavirenz, efavirenz]", "values": [{"measurement": "cumulative renal excretion", "setting": "[1]; 400 mg efavirenz single dose, first value of the pair (taken as alone)", "value": "83.4 ± 26.9", "unit": "µg"}, {"measurement": "cumulative renal excretion", "setting": "[1]; [10]", "value": "88.4 ± 18.8", "unit": "µg"}, {"measurement": "renal clearance", "setting": "[1]; [10]", "value": "0.06 ± 0.03", "unit": "mL/min"}, {"measurement": "AUC(0-inf)", "setting": "[1]; human, serum, oral, 400 mg", "value": "27000 ± 12200", "unit": "ng·h/mL"}, {"measurement": "CL renal", "setting": "[1]; human, urine and plasma, oral, 400 mg", "value": "0.06 ± 0.03", "unit": "mL/min"}, {"measurement": "Tmax", "setting": "[2]", "value": "2 to 3", "unit": "h"}, {"measurement": "influence on OATP1B1-mediated uptake of bromosulfophthalein", "setting": "[3]", "value": "no influence"}, {"measurement": "estimated luminal concentration", "setting": "[4]", "value": "~ 5 mmol/l and 5 mmol/l"}, {"measurement": "HIV-infected patients with increased serum cholesterol levels", "setting": "[5]", "value": "~50", "unit": "%"}, {"measurement": "IC50", "setting": "[6]", "value": 60.3, "unit": "µM"}, {"measurement": "concentration inhibiting ABCB1 activity to the same extent as PSC833 (10 μmol/l)", "setting": "[7]", "value": 316, "unit": "µM"}]}, {"smiles": "O=C1[C@H](CC[C@H](O)c2ccc(F)cc2)[C@@H](c2ccc(O)cc2)N1c1ccc(F)cc1", "note": "[Ezetimibe, ezetimibe]", "values": [{"measurement": "lathosterol/cholesterol ratio (marker for endogenous cholesterol synthesis)", "setting": "[8]; after treatment with ezetimibe", "value": "significantly increased"}, {"measurement": "reduction of serum concentration of campesterol", "setting": "[8]; [11]", "value": "~ 40%"}, {"measurement": "reduction of serum concentration of sitosterol", "setting": "[8]; [11]", "value": "~ 40%"}, {"measurement": "reduction of total serum cholesterol", "setting": "[8]; [11]", "value": "10–15%"}, {"measurement": "AUC0–6 h Ratio (90% CI)", "setting": "[9]; [12]", "value": "1.052 (0.880, 1.256)"}, {"measurement": "AUC0–24 h Ratio (90% CI)", "setting": "[9]; [12]", "value": "0.975 (0.850, 1.118)"}, {"measurement": "Cmax Ratio (90% CI)", "setting": "[9]; [12]", "value": "0.951 (0.730, 1.240)"}, {"measurement": "AUC0–6 h Ratio (90% CI)", "setting": "[9]; [13]", "value": "1.346 (1.201, 1.508)"}, {"measurement": "AUC0–24 h Ratio (90% CI)", "setting": "[9]; [13]", "value": "1.146 (1.034, 1.270)"}, {"measurement": "Cmax Ratio (90% CI)", "setting": "[9]; [13]", "value": "1.194 (1.031, 1.382)"}, {"measurement": "AUC(0-t)", "setting": "[9]; human, oral, 10 mg, AUC0–6 h, steady state, 10 mg ezetimibe alone", "value": "13.6 ± 5.5", "unit": "ng·h/mL"}, {"measurement": "AUC(0-t)", "setting": "[9]; human, oral, 10 mg, AUC0–24 h, steady state, 10 mg ezetimibe alone, 12 healthy subjects", "value": "51.9 ± 21.7", "unit": "ng·h/mL"}, {"measurement": "Cmax", "setting": "[9]; human, oral, 10 mg, Cmax, steady state, 10 mg ezetimibe alone", "value": "4.82 ± 2.74", "unit": "ng/mL"}, {"measurement": "higher AUC0–6 h", "setting": "[9]; with single-dose efavirenz vs ezetimibe alone, P = 0.005", "value": 1.4, "unit": "fold"}, {"measurement": "higher maximum plasma concentration (Cmax)", "setting": "[9]; with single-dose efavirenz vs ezetimibe alone, P = 0.049", "value": 1.2, "unit": "fold"}]}, {"smiles": "O=C(O)[C@H]1O[C@@H](Oc2ccc([C@@H]3[C@@H](CC[C@H](O)c4ccc(F)cc4)C(=O)N3c3ccc(F)cc3)cc2)[C@H](O)[C@@H](O)[C@@H]1O", "note": "[Ezetimibe-glucuronide, ezetimibe-glucuronide]", "values": [{"measurement": "CLR (renal clearance)", "setting": "[9]; 10 mg ezetimibe + 400 mg efavirenz multiple dose", "value": "21.7 ± 5.91", "unit": "mL/min"}, {"measurement": "CLR (renal clearance)", "setting": "[9]; 10 mg ezetimibe + 400 mg efavirenz single dose", "value": "23.3 ± 7.61", "unit": "mL/min"}, {"measurement": "CLR (renal clearance)", "setting": "[9]; 10 mg ezetimibe alone, steady state", "value": "24.7 ± 8.77", "unit": "mL/min"}, {"measurement": "decrease of exposure", "setting": "[9]; acute and chronic comedication with efavirenz", "value": "12–30%"}, {"measurement": "AUC0–6 h Ratio (90% CI)", "setting": "[9]; [12]", "value": "0.691 (0.592, 0.806)"}, {"measurement": "AUC0–24 h Ratio (90% CI)", "setting": "[9]; [12]", "value": "0.700 (0.608, 0.806)"}, {"measurement": "Cmax Ratio (90% CI)", "setting": "[9]; [12]", "value": "0.606 (0.469, 0.783)"}, {"measurement": "AUC0–6 h Ratio (90% CI)", "setting": "[9]; [13]", "value": "0.872 (0.774, 0.982)"}, {"measurement": "AUC0–24 h Ratio (90% CI)", "setting": "[9]; [13]", "value": "0.885 (0.809, 0.968)"}, {"measurement": "Cmax Ratio (90% CI)", "setting": "[9]; [13]", "value": "0.776 (0.625, 0.963)"}, {"measurement": "reduction of urinary excretion", "setting": "[9]; multiple doses of efavirenz, unchanged renal clearance, P = 0.003", "value": 35, "unit": "%"}, {"measurement": "diminished serum AUC", "setting": "[9]; pretreatment with multiple doses of efavirenz, P = 0.005", "value": "~30", "unit": "%"}, {"measurement": "diminished serum Cmax", "setting": "[9]; pretreatment with multiple doses of efavirenz, P = 0.012", "value": "about 43%"}, {"measurement": "AUC0–6 h", "setting": "[9]; [14]", "value": "141 ± 58", "unit": "ng·h/mL"}, {"measurement": "AUC0–24 h", "setting": "[9]; [14]", "value": "325 ± 152", "unit": "ng·h/mL"}, {"measurement": "Cmax", "setting": "[9]; [14]", "value": "45.3 ± 14.6", "unit": "ng/mL"}, {"measurement": "AUC0–6 h", "setting": "[9]; [15]", "value": "182 ± 87", "unit": "ng·h/mL"}, {"measurement": "AUC0–24 h", "setting": "[9]; [15]", "value": "411 ± 195", "unit": "ng·h/mL"}, {"measurement": "Cmax", "setting": "[9]; [15]", "value": "60.9 ± 29.5", "unit": "ng/mL"}, {"measurement": "AUC0–24 h", "setting": "[9]; steady state, 10 mg ezetimibe alone, 12 healthy subjects", "value": "466 ± 223", "unit": "ng·h/mL"}, {"measurement": "AUC0–6 h", "setting": "[9]; [16]", "value": "205 ± 90", "unit": "ng·h/mL"}, {"measurement": "Cmax", "setting": "[9]; [16]", "value": "78.9 ± 43.1", "unit": "ng/mL"}]}]}
